Results reported in publication PMC4721142, “Randomized controlled studies on the efficacy of antiarthritic agents in inhibiting cartilage degeneration and pain associated with progression of osteoarthritis in the rat” (Arthritis Research & Therapy, 2016).
Like-named read-outs stand apart in the source and are kept apart here.

Tests used:
MIA rat model of OA [1] = assay: MIA trial 1 weight bearing (daily s.c. clonidine 0.1, fluocinolone 0.002, morphine 6 mg/kg); assay type: in vivo
Description: Weight bearing (WB; incapacitance) was measured five times per day, once per week, using a Linton incapacitance meter (Stoelting Co., Wood Dale, IL, USA). Rats were acclimated to the meter before study initiation, and, similarly, immediately before WB, the animals were placed in the meter and allowed to acclimate for 2–5 minutes. Each hind paw was placed on a separate force plate so that the force exerted by each side could be averaged over a 5-second interval, and the mean of three readings was taken for each data point. Right paw force was compared with that on the left side for each group to confirm that animals were displaying incapacitance and/or pain behavior. Differences in force (left minus right) and right paw force as a percentage of the total force exerted by both paws were determined and compared between groups.
Following isoflurane anesthesia, 50 μl (2 mg) of MIA was injected into the synovial space of the left knee. Animals were randomly assigned to groups, and pain behavior was assessed 7, 14, 21, and 28 days following MIA injection and intervention using WB with the Stoelting incapacitance meter (trial 1) or the dRS test (trials 2 and 3). […] Animals received MIA treatment and then saline control or therapeutic. […] Histopathology was performed at each time point and at study termination. All studies were conducted in accordance with the International Association for the Study of Pain Guidelines and were approved by the Algos Therapeutics, Inc. Institutional Animal Care and Use Committee (IACUC) before initiation. Those running the studies were blind to the treatments. See Additional file 1 for further details. […]
dosing were housed three per cage. Animals had free access to food and water and were maintained […]
The animal colony was maintained at approximately 21 °C. All experiments were conducted in accordance with the International Association for the Study of Pain Guidelines.

MIA rat model of OA [2] = assay: MIA trial 1 histopathology; assay type: in vivo; settings: necropsy day 29, n = 3; for Histopathology, cartilage score: 0-5 scale
Description: Following functional testing in the first and second MIA trials, femurs were fixed in paraformaldehyde, processed, sectioned, stained with hematoxylin and eosin or Safranin O at Premier Laboratory (Longmont, CO, USA), and analyzed by a veterinary pathologist. For MIA trial 1, sections were evaluated for the percentage area of chondrocyte necrosis and/or proteolytic degeneration using a 5-point scale with 0 = none; 1 being <10 %; 2 = 10–30 %; 3 = 30–60 %; 4 = 60–90 %; and 5 being >90 %. Other characteristics of inflammation, proliferation, and integrity of the synovium, subchondral bone, and articular cartilage were scored as normal, minimal, mild, moderate, marked, or increased or decreased when severity was not graded. MIA trial 2 was measured similarly and then cross-checked according to the methods used for MIA trial 3 (see text below).
The histopathology for the first MIA trial was performed by Premier Laboratories (Dr. Michael Hawes, APS, Pathologist). Treatments were masked during the assessment. Chondrocyte necrosis and proteolytic degeneration of the femurs were scored on a 5 point scale with 0 = None; 1 = <10%; […]
proteoglycan content (safranin O staining), synovial membrane inflammation and proliferation, subchondral bone, and articular cartilage (as indicated in Supplementary methods). Characteristics within these categories were scored as normal, minimal, mild, moderate, marked, or +/- when severity was not graded. […]
Degenerative changes occur by 3-6 weeks post-surgery in the MMT/MCLT model and are of greatest severity on the outer 1/3 of the tibial cartilage. Less severe degenerative changes are observed in the middle and inner 1/3 of the tibial cartilage. Osteophytes progressively increase in size and are ultimately quite large (medial tibia). By 12 months nearly all rats show total cartilage loss. Due to the rapid progression of cartilage degeneration, protective effects of therapeutics are not always apparent in the outer 1/3 of the tibial cartilage, although zonal analysis may reveal effects of treatment in the middle and inner 1/3. Substantial subchondral and epiphyseal bone changes occur in the medial tibia subjacent to the areas of greatest lesion severity. […]
Scores were based on the […]
percentage of area affected within the zone.
Cartilage degeneration in the tibia was scored on a five point scale for each zone, collagen damage across the medial tibial plateau was measured by total width for each grade damage. Cartilage degeneration in the tibia was scored none to severe (numerical values 0-5) for each zone (area defined by micrometer) using the following criteria: […]

[3] = MIA trial 2 clinical observations; assay type: in vivo, rat; settings: tacrolimus i.p. daily
[4] = rat, in vivo
Description: Using the MMT/MCLT model, a number of the same agents were tested via systemic delivery and
using incapacitance /weight bearing as a measure of pain.

Row | Compound | Weight bearing, hours after dosing with significant difference (MIA rat model of OA [1]; day 14) [h] | Weight bearing, hours after dosing with significant difference (MIA rat model of OA [1]; day 21, BL baseline) | Histopathology, bone (MIA rat model of OA [2]) | Histopathology, cartilage score (MIA rat model of OA [2]) | Clinical observation [3] | Clinical observation [4]
1 | Clc1cccc(Cl)c1N=C1NCCN1 [Clonidine] | 1 | 1 h | Severe | 4.7 |  | 
2 | CC1(C)O[C@@H]2C[C@H]3[C@@H]4C[C@H](F)C5=CC(=O)C=C[C@]5(C)[C@@]4(F)[C@@H](O)C[C@]3(C)[C@]2(C(=O)CO)O1 [Fluocinolone, Fluocinolone Acetonide] |  | BL^b, 1 | Minimal | 3.0 |  | 
3 | C=CC[C@@H]1/C=C(\C)C[C@H](C)C[C@H](OC)[C@H]2O[C@@](O)(C(=O)C(=O)N3CCCC[C@H]3C(=O)O[C@H](/C(C)=C/[C@@H]3CC[C@@H](O)[C@H](OC)C3)[C@H](C)[C@@H](O)CC1=O)[C@H](C)C[C@@H]2OC [Tacrolimus] |  |  |  |  | blood in the stool | blood in the stool
